We go through 4 molecules from US20080139493A1, “Bi- or Tetra-Guanidino-Biphenyl Compounds as Small Molecule Carriers” (priority 2004, published 2008).

One assay deals with U2OS cells. Description: Delivery of FITC, FACS analysis of live cells. Format: cell-based, human. Particulars: 10 µM, 15 minutes. The method, then: The efficiency of delivery of FITC by these guanidine carriers was tested by FACS analysis. U2OS cells were treated with at a concentration of 10 µM with each of the compounds indicated for 15 minutes, and then harvested by trypsinization, and washed in PBS. The live cells were then subjected to FACS analysis.
In general terms: Flow cytometry measures light scatter and fluorescence of single cells or particles in a stream.

In assay [1] the test system is CD3+ cells from peripheral blood mononuclear cells. The assay is described as follows: Delivery of FITC to primary suspension cells, FACS analysis. Format: cell-based. Particulars: primary human CD3+ cells, 10 µM, 15 minutes. As for the experimental part:
To determine whether SMCs deliver small molecules to primary human cells, CD3+ cells were isolated by MACS separation from freshly harvested peripheral blood mononuclear cells. This purified cell population was treated with 10 µM of each compound for 15 minutes. Cells were then washed in PBS and analyzed by FACS.

The subject of assay [2] is Human osteosarcoma cells (U2OS). The assay is described as follows: Uptake and sub-cellular localization by confocal microscopy. The class given is cell-based. Particulars: 10 μM, 10 minutes incubation, no fixation. The method, then: In order to observe the ability of the di-guanidine and tetra-guanidine compounds to transport small molecules, they were coupled to FITC, which emits light at 514 nm after laser excitation at 492 nm. Human osteosarcoma cells (U2OS) were cultured on glass coverslips and incubated for 10 minutes with each compound to a final concentration of 10 μM. They were compared to FITC conjugated to TAT and FITC alone. After incubation, cells were rinsed in PBS and mounted, without fixation, onto slides and visualized by confocal microscopy. […] Cells were visualized under higher magnification (63×), to assess sub-cellular localization of the FITC.

The test system of assay [3] is NIH3T3 fibroblasts. Description: Uptake of Geminin-SMC conjugate, anti-Geminin immunofluorescence. The class given is cell-based, mouse. Particulars: 10 μM, one hour. The method, then: (§1) A) NIH3T3 fibroblasts were incubated for one hour with 10 μM recombinant His6-Geminin or 10 μM Geminin-SMC conjugate. Cells were fixed, permeabilised and stained with a polyclonal rabbit anti-Geminin primary, a FITC-conjugated anti-rabbit secondary and counterstained with DAPI. […] B) NIH3T3 fibroblasts were driven into quiescence by density-dependent growth arrest and after 5 days were released back into the cell cycle by subculturing into fresh growth medium. 8 hours after release from quiescence 10 μM of Geminin-SMC was added to the cells. At 21 hours following release cells were pulse-labelled for one hour with 50 μM BrdU. Subsequently cells were fixed, permeabilised and stained with FITC-conjugated anti-BrdU and counterstained with propidium iodide. In a control population 68% of cells were able to re-enter the cell cycle following release whilst in the presence of Geminin-SMC replication dropped by 47% respectively.

Assay [4] deals with NIH3T3 fibroblasts. Description: S-phase assay (cellular DNA synthesis, BrdU incorporation). The class given is cell-based, mouse. As for the experimental part: as §1
Essentially the system is set up as follows: Mouse or human fibroblasts are arrested in quiescence (G0) by contact inhibition.
The quiescent fibroblasts are then subcultured at lower density to release fibroblasts from G0. Re-entry into the DNA synthesis phase (S phase) occurs 21 hours after the release. Pre-replicative complexes (pre-RCs) essential for unwinding of the DNA helix prior to DNA synthesis are assembled at replication origins 16-18 hrs after the release from G0.
One sample of cells is untreated and the other is treated by exposure to an SMC-conjugate according to the present invention. Treatment takes place before pre-RC assembly, preferably at 5-10 hours after release from G0.
The ability of cells to start S phase is monitored with a BrdU pulse at 21 hours. BrdU becomes incorporated into DNA during DNA synthesis and is thus a marker for entry into S phase. BrdU incorporation is then assayed and treated cells are compared with non-treated cells.
For synchronisation in G0, NIH3T3 fibroblasts are seeded at high density and driven into density-dependent growth arrest. […]
DNA synthesis is monitored by pulse labelling cells 21 h after release from G0 for 1 h with 50 μM BrdU. […]
The percentage of cells undergoing DNA replication is determined from images obtained by confocal fluorescence microscopy on a Leica TCS SP confocal microscope. […]
Plasmids expressing […] are microinjected into the nuclei of NIH3T3 fibroblasts at the treatment time 8 hours after release from density-dependent growth arrest in G0. The ability of cells to initiate DNA replication was assessed by pulse labelling cells 19 hours after release from G0 for 1 hour with bromodeoxyuridine (BrdU). Expression of E1̂E4 protein and incorporation of BrdU was monitored by confocal immunofluorescence microscopy. […]
For orientation: Dividing cells build labelled thymidine or BrdU into new DNA.

In the case of `N=C(N)NCCOc1c(CNC(=S)Nc2ccc3c(c2)C(=O)OC32c3ccc(O)cc3Oc3cc(O)ccc32)ccc(-c2ccccc2)c1OCCNC(=N)N` [di-guanidine-FITC, 2-[2,3-bis(2-guanidino-ethyloxy)-biphenyl-4-ylmethyl]-thioureido-fluorescein], the “cells fluorescent above the background auto-fluorescence” value in the assay with U2OS cells was found to be 80%. In assay [1], this molecule displayed a cells fluorescent of 88%. Moreover, the “sub-cellular localization of the FITC at higher magnification (63×)” value in assay [2] is “both nuclear and cytoplasmic fluorescence”.
As for `N=C(N)NCCOc1cccc(-c2ccc(CNC(=S)Nc3ccc4c(c3)C(=O)OC43c4ccc(O)cc4Oc4cc(O)ccc43)c(OCCNC(=N)N)c2OCCNC(=N)N)c1OCCNC(=N)N` [tetra-guanidine-FITC, [2,3,2′,3′-Tetra(2-guanidino-ethyloxy)-biphenyl-4-ylmethyl]-thioureido-fluorescein], the “cells fluorescent above the background auto-fluorescence” value in the assay with U2OS cells is 80%. The same molecule returned a cells fluorescent in assay [1] of 62%. Moreover, the “sub-cellular localization of the FITC at higher magnification (63×)” value in assay [2] was “intense nuclear fluorescence”.

B1: Geminin-SMC: conjugate of a compound of formula Ic with the pre-RC assembly repressor protein Geminin (209 aa) (conjugate, UniProt O75496 1-209, looked up)
chain: MNPSMKQKQEEIKENIKNSSVPRRTLKMIQPSASGSLVGRENELSAGLSKRKHRNDHLTSTTSSPGVIVPESSENKNLGGVTQESFDLMIKENPSSQYWKEVAEKRRKALYEALKENEKLHKEIEQKDNEIARLKKENKELAEVAEHVQYMAELIERLNGEPLDNFESLDNQEFDSEEETVEDSLVEDSEIGTCAEGTVSSSTDAKPCI
modifications: full-length conjugated to SMC compound of formula Ic
On to B1, for which the “FITC staining (anti-Geminin) within the cells” value in the assay with NIH3T3 fibroblasts [3] was “strong FITC staining”. In the assay with NIH3T3 fibroblasts [4] (10 μM added 8 hours after release from quiescence, BrdU pulse at 21 hours, control population 68% re-entered cell cycle), the “drop of replication (BrdU incorporation)” value came out at 47%. In addition, the “number of cells entering S phase” value in the assay with NIH3T3 fibroblasts [4] (10 fM to 10 μM, treatment 8 hours after G0 release) is “dramatic reduction”. The “DNA synthesis as monitored by S-phase assay” value with NIH3T3 fibroblasts [4] (treatment 8 hours after G0 release, BrdU pulse at 21 hours, concentration range per example (10 fM to 30 μM)) is reported as “inhibits DNA synthesis”. The “uptake of SMC-conjugate into the cells” value with NIH3T3 fibroblasts [4] (treatment 8 hours after G0 release, concentration range per example (10 fM to 30 μM)) is given as “efficiently taken into the cells”.

B2: His6-Geminin: recombinant His6-Geminin, unconjugated form of Geminin (protein, UniProt O75496 1-209, looked up)
Geminin: MNPSMKQKQEEIKENIKNSSVPRRTLKMIQPSASGSLVGRENELSAGLSKRKHRNDHLTSTTSSPGVIVPESSENKNLGGVTQESFDLMIKENPSSQYWKEVAEKRRKALYEALKENEKLHKEIEQKDNEIARLKKENKELAEVAEHVQYMAELIERLNGEPLDNFESLDNQEFDSEEETVEDSLVEDSEIGTCAEGTVSSSTDAKPCI
modifications: His6 tag
Take B2: the “FITC staining (anti-Geminin) within the cells” value with NIH3T3 fibroblasts [3] was “no FITC staining”.
